pEC50: −log10 of the molar value. Where two headings read alike, the source gives them in different places.
Columns and labels:
Type in all cases: cell-based
[1] = test system: HCV 2b Rluc cells (NS5A chimeric genotype 2a JFH-1 replicon with genotype 2b MD2b-1 NS5A gene, M31 present); assay: microbe, parasite or virus in culture; settings: Hepatitis C virus, read-out: 2b
Procedure, shortened: (§1)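 Replicon cells stably carrying the listed RLuc-encoding dicistronic replicons were seeded and treated with DMSO serial dilutions of compound (10 mM stocks) diluted into culture medium. After 72 h, cells were lysed and Renilla luciferase activity measured. EC50 was derived by non-linear regression.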

[2] = test system: HCV 3a RLuc cells (NS5A chimeric genotype 1b Con1 replicon with consensus genotype 3a NS5A gene); assay: microbe, parasite or virus in culture; settings: Hepatitis C virus
Procedure, shortened: as §1

[3] = test system: HCV 2a JFH-1 Rluc cells (dicistronic genotype 2a JFH-1 replicon, RLuc reporter); assay: microbe, parasite or virus in culture; settings: Hepatitis C virus, read-out: 2a JFH
Procedure, shortened: (§2)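 Replicons used: genotype 1b Con1, 1a H77, 2a JFH-1, and a 2a JFH-1 chimera with J6-strain NS5A (M31 present), all dicistronic.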

[4] = test system: HCV 1a RLuc cells (dicistronic genotype 1a H77 replicon, RLuc reporter); assay: microbe, parasite or virus in culture; settings: Hepatitis C virus, read-out: 1a
Procedure, shortened: as §2

[5] = test system: HCV 4a Rluc cells (NS5A chimeric genotype 1b Con1 replicon with genotype 4a NS5A gene); assay: microbe, parasite or virus in culture; settings: Hepatitis C virus, read-out: 4a
Procedure, shortened: as §1

[6] = test system: HCV 1b RLuc cells (dicistronic genotype 1b Con1 replicon, RLuc reporter); assay: microbe, parasite or virus in culture; settings: Hepatitis C virus, read-out: 1b (nM)
Procedure, shortened: as §2

[7] = test system: HCV 2a Rluc cells (NS5A chimeric genotype 2a JFH-1 replicon with genotype 2a J6 strain NS5A gene, M31 present); assay: HCV replicon reporter assay, genotype 2a J6 (M31 present); settings: Hepatitis C virus, read-out: 2a J6
Procedure, shortened: as §2

[8] = read-out: 3a, genotype 3a replicon
[9] = read-out: 3a, genotype 3a NS5A chimeric replicon
[10] = genotype 2a JFH-1 RLuc replicon
[11] = read-out: 3a, genotype 3a NS5A chimeric 1b Con1 replicon
[12] = genotype 2a JFH-1 replicon, RLuc reporter
[13] = genotype 1a H77 replicon, RLuc reporter

Row | SMILES | pEC50 [1] | pEC50 [2, 8] | pEC50 ([3]; genotype 2a JFH-1 replicon) | pEC50 ([4]; genotype 1a replicon) | pEC50 [5] | EC50 [6] [nM] | pEC50 [7] | pEC50 [2, 9] | pEC50 [3, 10] | pEC50 ([4]; genotype 1a H77 RLuc replicon) | pEC50 [2, 11] | pEC50 [3, 12] | pEC50 [4, 13]
1 | CCCC(=O)N[C@@H](C(=O)N1CCC[C@H]1c1ncc(-c2cc3c4c(c2)OCc2cc(-c5cnc([C@@H]6CCCN6C(=O)[C@H](NC(=O)CCC)c6ccccc6)[nH]5)cc(c2-4)OC3)[nH]1)c1ccccc1 [Example 470] | 9.00 to 12.00 | 9.00 to 12.00 | 9.00 to 12.00 | 9.00 to 12.00 | 9.00 to 12.00 | 0.148 | 9.00 to 12.00 | – | – | – | – | – | –
2 | COCCOC(=O)N[C@@H](C(=O)N1CCC[C@H]1c1ncc(-c2cc3c4c(c2)OCc2cc(-c5cnc([C@@H]6CCCN6C(=O)[C@H](NC(=O)OCCOC)c6ccccc6)[nH]5)cc(c2-4)OC3)[nH]1)c1ccccc1 [Example 448] | 9.00 to 12.00 | 9.00 to 12.00 | 9.00 to 12.00 | 9.00 to 12.00 | 9.00 to 12.00 | 0.459 | 7.36 to 9.00 | – | – | – | – | – | –
3 | COC(=O)N[C@H](C(=O)N1[C@@H]2CC[C@@H](C2)[C@H]1c1nc2ccc3cc(-c4ccc5c(ccc6nc([C@@H]7CCCN7C(=O)[C@H](NC(=O)N7CCOCC7)c7ccccc7)[nH]c65)c4)ccc3c2[nH]1)C(C)C [Example 358] | 9.00 to 12.00 | 9.00 to 12.00 | 9.00 to 12.00 | 9.00 to 12.00 | 9.00 to 12.00 | 0.057 | 9.00 to 12.00 | – | – | – | – | – | –
4 | COC(=O)N[C@H](C(=O)N1CCC[C@H]1c1nc(Br)c(-c2cc3c4c(c2)OCc2cc(-c5[nH]c([C@@H]6CCCN6C(=O)[C@@H](NC(=O)OC)C(C)C)nc5Br)cc(c2-4)OC3)[nH]1)C(C)C [Example 473] | 7.36 to 9.00 | 9.00 to 12.00 | 9.00 to 12.00 | 9.00 to 12.00 | 9.00 to 12.00 | 0.015 | 7.36 to 9.00 | – | – | – | – | – | –
5 | COC(=O)N[C@H](C(=O)N1[C@@H]2C[C@@H]2C[C@H]1c1ncc(-c2cc3c4c(c2)OCc2cc(-c5cnc([C@@H]6C[C@H]7C[C@H]7N6C(=O)[C@H](NC(=O)OC)c6ccccc6)[nH]5)cc(c2-4)OC3)[nH]1)C(C)C [Example 501] | 7.36 to 9.00 | – | – | – | 9.00 to 12.00 | 0.021 | < 7.36 | 9.00 to 12.00 | 9.00 to 12.00 | 9.00 to 12.00 | – | – | –
6 | COC(=O)N[C@H](C(=O)N1CCC[C@H]1c1ncc(-c2ccc3cc(-c4ccc(-c5cnc([C@@H]6C[C@H](F)CN6C(=O)[C@H](NC(=O)OC)c6ccccc6)[nH]5)cc4)ccc3c2)[nH]1)C(C)C [Example 129] | < 7.36 | – | – | – | 9.00 to 12.00 | 0.007 | < 7.36 | – | – | – | 9.00 to 12.00 | 9.00 to 12.00 | 9.00 to 12.00
7 | COC(=O)N[C@H](C(=O)N1CCC[C@H]1c1ncc(-c2ccc3c(c2)COc2cc4c(ccc5nc([C@@H]6C[C@H]7C[C@H]7N6C(=O)[C@@H](NC(=O)OC)C(C)C)[nH]c54)cc2-3)[nH]1)C(C)C [Example 518] | 9.00 to 12.00 | – | – | – | 9.00 to 12.00 | 0.01 | 7.36 to 9.00 | 9.00 to 12.00 | 9.00 to 12.00 | 9.00 to 12.00 | – | – | –
8 | COC(=O)N[C@H](C(=O)N1CCC[C@H]1c1nc2c([nH]1)-c1cc3c(cc1CC2)-c1ccc(-c2cnc([C@@H]4CCCN4C(=O)[C@H](NC(=O)C4CC4)c4ccccc4)[nH]2)cc1CO3)C(C)C [Example 494] | 9.00 to 12.00 | – | – | – | 9.00 to 12.00 | 0.021 | 9.00 to 12.00 | 9.00 to 12.00 | 9.00 to 12.00 | 9.00 to 12.00 | – | – | –
9 | COC(=O)N[C@@H](C(=O)N1C[C@@H](OC)C[C@H]1c1ncc(-c2ccc(-c3ccc4cc(-c5cnc([C@@H]6CCCN6C(=O)[C@H](C(C)C)N(C)C(=O)OC)[nH]5)ccc4c3)cc2)[nH]1)c1ccccc1 [Example 122] | < 7.36 | – | – | – | 9.00 to 12.00 | 0.009 | < 7.36 | – | – | – | 9.00 to 12.00 | 9.00 to 12.00 | 9.00 to 12.00
10 | COC[C@H]1C[C@@H](c2nc3ccc4cc(-c5ccc6c(ccc7nc([C@@H]8[C@@H]9CC[C@@H](C9)N8C(=O)[C@@H](NC(=O)OC)C(C)C)[nH]c76)c5)ccc4c3[nH]2)N(C(=O)[C@H](NC(=O)OC)c2ccccc2)C1 [Example 451] | 9.00 to 12.00 | 9.00 to 12.00 | 9.00 to 12.00 | 9.00 to 12.00 | 9.00 to 12.00 | 0.07 | 9.00 to 12.00 | – | – | – | – | – | –
